Read-outs that look alike come from different tables or passages of the source.
Legend:
[1] = system: PC3; assay: PC3 tumor cell line proliferation assay; assay type: cell-based; details: Homo sapiens, PC-3; for IC50: Table 2, in vitro IC50; for EC50: Table 1
Protocol: The assay is performed in a 96 well microtiter plate using Alamar Blue reduction. […] A compound disclosed herein is diluted in Tumor Cell Media and added in a 10 ul volume. […] A volume of 10 uL of Alamar Blue reagent is added to each well and plates are incubated for 3 hours at 37 C and 5% CO2. Alamar Blue fluoresce is read at 560Ex/590Em, and IC50 values are calculated using GraphPad Prism 5.

[2] = target: PI3K α (Homo sapiens (Human), UniProt P42336); assay: PI3K α kinase assay; assay type: biochemical
[3] = target: PI3K γ (Homo sapiens (Human), UniProt P48736); assay: PI3K γ kinase assay; assay type: biochemical; details: Table 2
Chain of PI3K γ (P48736 whole entry, species assumed): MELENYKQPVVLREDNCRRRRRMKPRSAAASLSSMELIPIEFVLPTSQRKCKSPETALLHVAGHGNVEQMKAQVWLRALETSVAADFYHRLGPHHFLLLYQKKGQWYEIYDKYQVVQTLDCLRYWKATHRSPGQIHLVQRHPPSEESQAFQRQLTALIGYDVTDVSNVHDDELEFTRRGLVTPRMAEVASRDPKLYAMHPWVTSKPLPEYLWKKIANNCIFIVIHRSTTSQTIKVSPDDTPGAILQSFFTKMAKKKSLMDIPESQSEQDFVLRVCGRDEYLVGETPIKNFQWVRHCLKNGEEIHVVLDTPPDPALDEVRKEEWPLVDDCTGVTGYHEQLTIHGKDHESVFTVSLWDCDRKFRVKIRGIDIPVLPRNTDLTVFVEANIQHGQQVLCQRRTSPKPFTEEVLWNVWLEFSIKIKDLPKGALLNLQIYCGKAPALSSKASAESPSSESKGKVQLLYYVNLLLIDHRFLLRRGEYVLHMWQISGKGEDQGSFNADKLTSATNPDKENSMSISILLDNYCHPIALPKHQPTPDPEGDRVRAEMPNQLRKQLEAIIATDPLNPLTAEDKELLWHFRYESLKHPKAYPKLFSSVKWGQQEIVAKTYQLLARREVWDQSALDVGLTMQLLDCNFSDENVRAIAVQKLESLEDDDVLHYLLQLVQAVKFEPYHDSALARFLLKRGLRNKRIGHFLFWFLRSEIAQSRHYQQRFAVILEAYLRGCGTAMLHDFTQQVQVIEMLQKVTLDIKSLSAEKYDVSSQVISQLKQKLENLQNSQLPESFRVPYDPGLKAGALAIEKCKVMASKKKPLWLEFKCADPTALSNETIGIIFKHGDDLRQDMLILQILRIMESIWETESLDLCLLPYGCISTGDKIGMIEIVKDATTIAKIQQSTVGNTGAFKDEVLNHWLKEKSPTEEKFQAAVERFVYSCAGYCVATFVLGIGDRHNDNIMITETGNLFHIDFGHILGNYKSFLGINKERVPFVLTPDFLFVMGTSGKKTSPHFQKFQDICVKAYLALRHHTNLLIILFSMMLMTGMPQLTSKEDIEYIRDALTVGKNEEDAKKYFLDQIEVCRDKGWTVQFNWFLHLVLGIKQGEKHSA

[4] = target: PI3K δ (Homo sapiens (Human), UniProt O00329); assay: PI3K δ kinase assay; assay type: biochemical
Chain of PI3K δ (O00329 whole entry, species assumed): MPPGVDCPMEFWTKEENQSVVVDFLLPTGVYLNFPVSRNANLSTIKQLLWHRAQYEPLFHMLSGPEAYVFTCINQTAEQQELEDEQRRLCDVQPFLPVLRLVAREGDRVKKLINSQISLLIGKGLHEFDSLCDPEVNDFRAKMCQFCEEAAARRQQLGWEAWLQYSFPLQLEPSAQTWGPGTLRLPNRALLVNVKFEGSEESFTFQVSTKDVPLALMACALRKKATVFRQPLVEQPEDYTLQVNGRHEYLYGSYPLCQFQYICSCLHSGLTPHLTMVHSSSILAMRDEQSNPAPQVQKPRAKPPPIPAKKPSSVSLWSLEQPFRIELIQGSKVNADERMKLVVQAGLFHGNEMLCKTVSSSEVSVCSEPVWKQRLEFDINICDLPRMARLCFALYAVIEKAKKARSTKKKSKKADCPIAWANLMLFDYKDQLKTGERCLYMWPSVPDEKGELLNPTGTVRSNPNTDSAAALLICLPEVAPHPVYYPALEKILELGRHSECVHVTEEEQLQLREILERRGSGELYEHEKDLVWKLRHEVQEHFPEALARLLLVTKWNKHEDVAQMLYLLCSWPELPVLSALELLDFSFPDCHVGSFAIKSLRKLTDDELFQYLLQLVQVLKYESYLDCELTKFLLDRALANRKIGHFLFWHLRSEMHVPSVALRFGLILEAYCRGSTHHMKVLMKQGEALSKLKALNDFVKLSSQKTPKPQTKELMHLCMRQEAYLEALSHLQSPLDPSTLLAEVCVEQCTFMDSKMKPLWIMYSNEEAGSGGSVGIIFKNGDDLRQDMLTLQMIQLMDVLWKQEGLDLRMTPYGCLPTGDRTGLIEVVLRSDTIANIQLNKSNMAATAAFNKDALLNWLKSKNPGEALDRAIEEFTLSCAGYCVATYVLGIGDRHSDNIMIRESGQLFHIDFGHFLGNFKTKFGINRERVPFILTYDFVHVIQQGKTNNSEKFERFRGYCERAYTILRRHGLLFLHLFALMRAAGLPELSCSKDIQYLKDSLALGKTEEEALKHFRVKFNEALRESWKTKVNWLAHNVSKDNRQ
Chain of PI3K δ (P27986 whole entry partner, species assumed): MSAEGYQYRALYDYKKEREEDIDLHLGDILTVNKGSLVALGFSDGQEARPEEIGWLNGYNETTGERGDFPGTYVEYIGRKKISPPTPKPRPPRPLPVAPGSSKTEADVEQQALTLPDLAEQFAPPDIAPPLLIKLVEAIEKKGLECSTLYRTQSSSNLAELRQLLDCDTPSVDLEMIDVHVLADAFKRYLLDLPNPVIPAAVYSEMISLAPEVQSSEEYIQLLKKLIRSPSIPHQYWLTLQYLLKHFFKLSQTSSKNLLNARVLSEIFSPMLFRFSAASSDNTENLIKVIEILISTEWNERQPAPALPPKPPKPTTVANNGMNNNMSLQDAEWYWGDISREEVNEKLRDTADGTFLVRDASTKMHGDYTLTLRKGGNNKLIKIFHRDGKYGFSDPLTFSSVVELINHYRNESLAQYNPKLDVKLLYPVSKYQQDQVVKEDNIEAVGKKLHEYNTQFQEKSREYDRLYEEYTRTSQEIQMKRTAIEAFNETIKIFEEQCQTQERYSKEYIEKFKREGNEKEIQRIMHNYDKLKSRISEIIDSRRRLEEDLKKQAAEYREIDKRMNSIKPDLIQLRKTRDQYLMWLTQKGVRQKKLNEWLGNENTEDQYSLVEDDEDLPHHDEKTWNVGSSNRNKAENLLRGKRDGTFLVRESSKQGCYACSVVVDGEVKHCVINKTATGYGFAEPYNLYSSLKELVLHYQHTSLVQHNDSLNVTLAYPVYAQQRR

[5] = target: mTORC (Homo sapiens (Human), UniProt P42345); assay: mTORC in vitro IC50 (Table 2); assay type: biochemical
Protocol: The compounds described herein and any other mTor inhibitors known in the art can be tested against recombinant mTOR (Invitrogen) in an assay containing 50 mM HEPES, pH 7.5, 1 mM EGTA, 10 mM MgCl2, 2.5 mM, 0.01% Tween, 10 μM ATP (2.5 μCi of μ-32P-ATP), and 3 μg/mL BSA. Rat recombinant PHAS-1/4EBP1 (Calbiochem; 2 mg/mL) is used as a substrate. Reactions are terminated by spotting onto nitrocellulose, which is washed with 1M NaCl/1% phosphoric acid (approximately 6 times, 5-10 minutes each). Sheets are dried and the transferred radioactivity quantitated by phosphorimaging.
For instance, one can use Invitrogen's LanthaScreen™ Kinase assay to test the inhibitors of mTOR disclosed herein. This assay is a time resolved FRET platform that measures the phosphorylation of GFP labeled 4EBP1 by mTOR kinase. The kinase reaction is performed in a white 384 well microtitre plate. The total reaction volume is 20 ul per well and the reaction buffer composition is 50 mM HEPES pH7.5, 0.01% Polysorbate 20, 1 mM EGTA, 10 mM MnCl2, and 2 mM DTT. In the first step, each well receives 2 ul of test compound in 20% dimethylsulphoxide resulting in a 2% DMSO final concentration. Next, 8 ul of mTOR diluted in reaction buffer is added per well for a 60 ng/ml final concentration. To start the reaction, 10 ul of an ATP/GFP-4EBP1 mixture (diluted in reaction buffer) is added per well for a final concentration of 10 μM ATP and 0.5 μM GFP-4EBP1. The plate is sealed and incubated for 1 hour at room temperature. […] The plate is sealed, incubated for 1 hour at room temperature, and then read on a plate reader set up for LanthaScreen™ TR-FRET. Data is analyzed and IC50s are generated using GraphPad Prism 5.

[6] = target: PI3K β (Homo sapiens (Human), UniProt P42338); assay: PI3K β kinase assay; assay type: biochemical; details: Table 2
Chain of PI3K β (P42338 whole entry, species assumed): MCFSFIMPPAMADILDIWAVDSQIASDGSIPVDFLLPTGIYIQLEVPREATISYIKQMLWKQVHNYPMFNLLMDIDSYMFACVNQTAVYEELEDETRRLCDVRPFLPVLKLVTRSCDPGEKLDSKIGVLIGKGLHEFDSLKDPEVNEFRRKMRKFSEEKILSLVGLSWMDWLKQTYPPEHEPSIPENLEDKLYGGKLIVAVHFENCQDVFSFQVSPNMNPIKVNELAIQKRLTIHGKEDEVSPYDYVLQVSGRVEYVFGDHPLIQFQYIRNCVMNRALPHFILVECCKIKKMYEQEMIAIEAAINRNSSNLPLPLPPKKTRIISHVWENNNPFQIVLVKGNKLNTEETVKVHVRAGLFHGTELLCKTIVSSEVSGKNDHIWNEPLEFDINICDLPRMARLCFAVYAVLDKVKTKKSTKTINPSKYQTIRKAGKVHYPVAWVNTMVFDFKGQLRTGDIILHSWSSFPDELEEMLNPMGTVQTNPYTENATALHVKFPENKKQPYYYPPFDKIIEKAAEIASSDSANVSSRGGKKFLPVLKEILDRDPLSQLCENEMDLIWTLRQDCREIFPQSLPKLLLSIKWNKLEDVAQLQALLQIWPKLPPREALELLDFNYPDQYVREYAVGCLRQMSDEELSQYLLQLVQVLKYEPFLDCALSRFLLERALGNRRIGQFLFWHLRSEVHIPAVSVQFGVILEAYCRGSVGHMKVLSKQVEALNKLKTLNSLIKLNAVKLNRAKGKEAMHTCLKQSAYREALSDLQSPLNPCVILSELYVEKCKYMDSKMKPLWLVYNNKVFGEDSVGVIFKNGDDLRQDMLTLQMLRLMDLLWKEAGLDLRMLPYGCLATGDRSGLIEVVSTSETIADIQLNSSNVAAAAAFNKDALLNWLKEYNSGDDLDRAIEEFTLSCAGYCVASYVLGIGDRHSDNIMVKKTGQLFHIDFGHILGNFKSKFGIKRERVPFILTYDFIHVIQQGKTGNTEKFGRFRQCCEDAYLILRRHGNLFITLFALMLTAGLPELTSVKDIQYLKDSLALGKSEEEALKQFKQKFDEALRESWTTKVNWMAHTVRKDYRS
Chain of PI3K β (P27986 whole entry partner, species assumed): as the sequence (P27986 whole entry partner, species assumed) above

Chain of PI3K α (P42336 whole entry): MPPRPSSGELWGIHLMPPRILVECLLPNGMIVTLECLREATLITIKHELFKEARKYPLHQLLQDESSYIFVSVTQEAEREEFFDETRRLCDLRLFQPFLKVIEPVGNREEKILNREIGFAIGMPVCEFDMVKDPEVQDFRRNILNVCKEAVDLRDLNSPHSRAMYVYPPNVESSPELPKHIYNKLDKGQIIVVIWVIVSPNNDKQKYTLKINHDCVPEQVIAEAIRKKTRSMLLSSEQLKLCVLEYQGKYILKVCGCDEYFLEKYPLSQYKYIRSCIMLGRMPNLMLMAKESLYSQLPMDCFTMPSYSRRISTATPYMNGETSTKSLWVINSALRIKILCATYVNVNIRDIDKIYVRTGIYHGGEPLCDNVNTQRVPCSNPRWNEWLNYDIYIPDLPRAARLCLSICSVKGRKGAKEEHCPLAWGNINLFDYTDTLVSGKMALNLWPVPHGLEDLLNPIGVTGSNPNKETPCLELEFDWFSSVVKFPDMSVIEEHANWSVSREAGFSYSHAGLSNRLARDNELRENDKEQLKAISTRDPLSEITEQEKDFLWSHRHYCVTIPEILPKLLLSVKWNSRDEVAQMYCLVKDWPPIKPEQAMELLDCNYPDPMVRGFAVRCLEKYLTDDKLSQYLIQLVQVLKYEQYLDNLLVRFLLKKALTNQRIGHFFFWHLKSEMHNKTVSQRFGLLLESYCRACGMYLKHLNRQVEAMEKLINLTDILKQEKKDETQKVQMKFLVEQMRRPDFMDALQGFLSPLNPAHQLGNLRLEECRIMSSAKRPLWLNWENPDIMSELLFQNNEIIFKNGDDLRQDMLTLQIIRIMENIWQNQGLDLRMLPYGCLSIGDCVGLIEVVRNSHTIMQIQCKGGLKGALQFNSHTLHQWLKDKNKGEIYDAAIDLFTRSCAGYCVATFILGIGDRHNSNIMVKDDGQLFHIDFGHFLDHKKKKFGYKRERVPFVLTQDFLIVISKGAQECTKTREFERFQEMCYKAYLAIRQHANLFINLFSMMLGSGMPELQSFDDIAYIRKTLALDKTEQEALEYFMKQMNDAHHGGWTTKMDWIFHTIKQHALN
Chain of PI3K α (P27986 whole entry partner): as the sequence (P27986 whole entry partner, species assumed) above

In the case of `COc1cc(Cl)c2[nH]c(-c3nn(C(C)C)c4ncnc(N)c34)cc2c1` [Compound 13], the IC50 [1] is reported as > 0.5 µM.
With `Nc1ncnc2c1c(-c1cc3cccc(O)c3[nH]1)nn2C1CCCC1` [Compound 36] the IC50 ([2]; Table 2) was > 0.5 µM, the IC50 [3] was < 0.1 µM and the IC50 ([4]; Table 2) was < 0.5 µM. For the same compound, the IC50 [1] was < 0.1 µM and the IC50 [5] was < 0.01 µM.
For `CC(C)n1cc(-c2ccc3oc(N)nc3c2)c2c(N)ncnc21` [Compound 8], the EC50 [1] was < 0.1 µM.
With `CC(=O)N1CCC(n2nc(-c3ccc4oc(N)nc4c3)c3c(N)ncnc32)CC1` [Compound 7] the EC50 [1] was < 10 µM.
In the case of `CCOC(=O)Cn1nc(-c2cc3cc(O)ccc3[nH]2)c2c(N)ncnc21` [Compound 28], the IC50 ([2]; Table 2) is reported as > 0.5 µM, the IC50 ([4]; Table 2) is reported as > 0.5 µM and the IC50 [6] is reported as > 0.5 µM. The IC50 [1] was > 0.5 µM and the IC50 [5] was < 0.5 µM.
With `COc1ccc2[nH]c(-c3nn(C(C)C)c4ncnc(N)c34)cc2c1` [Compound 5] the IC50 [1] was > 0.5 µM.
`CC(C)n1nc(-c2cc3ccc(O)cc3[nH]2)c2c(N)ncnc21` [Compound 21] was tested, and the IC50 [1] was > 0.5 µM.
In the case of `CC(=O)N1CCC(n2nc(-c3cc4cc(O)ccc4[nH]3)c3c(N)ncnc32)CC1` [Compound 30], the IC50 [2] is reported as > 0.5 µM, the IC50 ([4]; Table 2) is reported as > 0.5 µM and the IC50 [6] is reported as > 0.5 µM. The IC50 [1] was > 0.5 µM and the IC50 [5] was < 0.025 µM.
With `Nc1ncnc2c1c(-c1cc3cc(O)ccc3[nH]1)nn2C1CCC(N2CCOCC2)CC1` (centres unmarked) [Compound 57] the IC50 ([2]; Table 2) was > 0.5 µM, the IC50 [3] was > 0.5 µM and the IC50 [6] was > 0.5 µM. The IC50 [5] was < 0.025 µM.
For `CNC(=O)Cn1nc(-c2cc3cc(O)ccc3[nH]2)c2c(N)ncnc21` [Compound 35], the IC50 ([2]; Table 2) was > 0.5 µM, the IC50 [3] was > 0.5 µM and the IC50 ([4]; Table 2) was > 0.5 µM. The IC50 [5] was > 0.5 µM.
`Nc1ncnc2c1c(-c1cc3cc(O)ccc3[nH]1)nn2C1CCOCC1` [Compound 42] was tested, and the IC50 [2] was > 0.5 µM, the IC50 ([4]; Table 2) was < 0.1 µM and the IC50 [6] was > 0.5 µM. For the same compound, the IC50 [1] was > 0.5 µM and the IC50 [5] was < 0.005 µM.
`CC(C)N1CCC(n2nc(-c3cc4cc(O)cc(Cl)c4[nH]3)c3c(N)ncnc32)CC1` [Compound 56] was tested, and the IC50 ([2]; Table 2) was > 0.5 µM, the IC50 [3] was > 0.5 µM and the IC50 [6] was > 0.5 µM. For the same compound, the IC50 [5] was > 0.5 µM.
For `Nc1ncnc2c1c(-c1cc3cc(O)ccc3[nH]1)nn2C1CC(=O)C1` [Compound 53], the IC50 ([2]; Table 2) was > 0.5 µM, the IC50 [3] was > 0.5 µM and the IC50 [6] was > 0.5 µM. The IC50 [5] was < 0.1 µM.
`Nc1ncnc2c1c(-c1cc3cc(O)ccc3[nH]1)nn2C1CCCC1` [Compound 12] was tested, and the IC50 [1] was < 0.05 µM.
For `CC(C)n1nc(-c2ccc3c(N)noc3c2)c2c(N)ncnc21` [Compound 12], the EC50 [1] was > 10 µM.
In the case of `CC(C)n1nc(-c2ccc3onc(N)c3c2)c2c(N)ncnc21` [Compound 10], the EC50 [1] is reported as > 10 µM.
In the case of `COCCn1nc(-c2cc3cc(O)ccc3[nH]2)c2c(N)ncnc21` [Compound 40], the IC50 ([2]; Table 2) is reported as > 0.5 µM, the IC50 [3] is reported as > 0.5 µM and the IC50 [4] is reported as > 0.5 µM. For the same compound, the IC50 [1] was > 0.5 µM and the IC50 [5] was < 0.1 µM.
`CC(C)n1nc(-c2cc3ccccc3[nH]2)c2c(N)ncnc21` [Compound 7] was tested, and the IC50 [1] was > 0.5 µM.
With `CC(C)n1nc(-c2cc3ccc(C#N)cc3[nH]2)c2c(N)ncnc21` [Compound 24] the IC50 [1] was > 0.5 µM.
`CC(C)n1nc(-c2cc3cc(Cl)ccc3[nH]2)c2c(N)ncnc21` [Compound 17] was tested, and the IC50 [1] was > 0.5 µM.
For `Nc1ncnc2c1c(-c1cc3cc(O)ccc3[nH]1)nn2C1CCN(C(=O)C2CC2)CC1` [Compound 31], the IC50 [2] was > 0.5 µM, the IC50 ([4]; Table 2) was < 0.5 µM and the IC50 [6] was > 0.5 µM. The IC50 [1] was > 0.5 µM and the IC50 [5] was < 0.025 µM.
With `Nc1ncnc2c1c(-c1cc3cc(O)ccc3[nH]1)nn2C1CCCCC1` [Compound 26] the IC50 [1] was < 0.5 µM.
For `CC(=O)Nc1noc2cc(-c3nn(C(C)C)c4ncnc(N)c34)ccc12` [Compound 11], the EC50 [1] was > 10 µM.
For `CC(C)n1nc(-c2cc3c(O)cccc3[nH]2)c2c(N)ncnc21` [Compound 37], the IC50 ([2]; Table 2) was < 0.5 µM, the IC50 [3] was < 0.5 µM and the IC50 ([4]; Table 2) was < 0.5 µM. The IC50 [5] was > 0.5 µM.
In the case of `CC(C)n1nc(-c2cc3cc(O)ccc3[nH]2)c2c(N)nccc21` [Compound 45], the IC50 [5] is reported as > 0.5 µM.
In the case of `CC(C)n1nc(-c2cc3cc(O)c(Cl)cc3[nH]2)c2c(N)ncnc21` [Compound 32], the IC50 [2] is reported as > 0.5 µM, the IC50 [3] is reported as > 0.5 µM and the IC50 ([4]; Table 2) is reported as > 0.5 µM. The IC50 [1] was > 0.5 µM and the IC50 [5] was < 0.5 µM.
For `CC(C)n1nc(-c2cc3c(Cl)ccc(O)c3[nH]2)c2c(N)ncnc21` [Compound 39], the IC50 ([2]; Table 2) was > 0.5 µM, the IC50 [3] was > 0.5 µM and the IC50 ([4]; Table 2) was > 0.5 µM. The IC50 [1] was > 0.5 µM and the IC50 [5] was < 0.01 µM.
With `CNC(=O)CCn1nc(-c2cc3cc(O)ccc3[nH]2)c2c(N)ncnc21` [Compound 43] the IC50 ([2]; Table 2) was > 0.5 µM, the IC50 ([4]; Table 2) was > 0.5 µM and the IC50 [6] was > 0.5 µM. For the same compound, the IC50 [5] was > 0.5 µM.
For `CC(C)n1nc(-c2cc3ccc(C(N)=O)cc3[nH]2)c2c(N)ncnc21` [Compound 25], the IC50 [1] was > 0.5 µM.
`CC(C)n1nc(-c2ccc3nc(N)oc3c2)c2c(N)ncnc21` [Compound 4] was tested, and the EC50 [1] was < 10 µM.

Reference: patent publication US10172858B2, “Combination pharmaceutical compositions and uses thereof” (Intellikine LLC, priority 2011, dated 2019)
